Read-outs that look alike come from different tables or passages of the source.
What was measured:
Half-life in vivo = conditions: irrespective of the dose
[1] = test system: human PASMCs from PAH patients; assay: Cyclic AMP assay; type: cell-based
Experimental: Human PASMCs from PAH patients were grown to 70-80% confluence in 12 well plates in DMEM/F12 containing 9% foetal bovine serum (FBS), penicillin (50 U/ml)/streptomycin (50 ag/ml). To assess the time-course of cAMP elevation, cells were stimulated with 100 nM ralinepag for varying times (0.5, 1, 2, 4, 8, 24, 48 hours). This dose of ralinepag was chosen on the basis that it was close to the EC50 for cAMP generation in preliminary experiments. In other experiments, the IP receptor agonist was added for a specified time (60 minutes) over a full concentration range (0.1-10,000 nM) in the absence and presence of […] of the IP receptor antagonist, RO-1138452. The antagonist is added 30 minutes beforehand and remained throughout.
To extract cyclic AMP, the medium was aspirated and PASMCs cells incubated in 0.1 M HCl for 20 minutes on ice followed by centrifugation at 1000 g for 10 minutes at 4° C. The protein concentration in the supernatant was determined using a […] protein assay (BCA, Novagen, EmD Chemicals, CA, USA). Intracellular cyclic AMP was measured using a competitive enzyme immunoassay 96 well plate kit (ADI-900-163, Enzo Life Sciences, Exeter, UK) and the assay performed according to the manufacturer's instructions. Each sample was run in duplicate and data expressed as pmol of cAMP per mg of total protein for each individual sample. Basal levels were subtracted from each agonist concentration data point. Given the large variation (˜15-fold) in cAMP generation from different patient samples, data was also normalized to the peak cyclic AMP response (assigned 100%) in each cell isolate.

[2] = test system: human PASMCs from PAH patients; assay: Cell proliferation assay (MTS), serum-induced growth; type: cell-based
Experimental: Primary cell lines of distal PASMCs from PAH patients were derived from explanted lungs as previously described (Falcetti et al., 2010; Bubb et al., 2014). These cells have an abnormal proliferative capacity when grown in culture (Zhang et al., 2007; Falcetti et al., 2010). Frozen cells were revived and grown in human smooth muscle basal medium-2 (SMBM; Lonza, Slough, UK) supplemented with 9% fetal bovine serum (FBS) at 37° C. in a humidified atmosphere of 5% CO2. After reaching confluence, cells were washed with phosphate-buffered saline (PBS) and treated with trypsin-EDTA for further passage. Only cells between passages 3 and 10 were used for experiments.
Comparative concentration-dependent effects of IP receptor agonists on cell proliferation were assessed on human PASMCs derived from PAH patients. Cells were seeded onto 96-well plates at a density of 1×10^4 cells/ml and grown at 37° C. in a humidified CO2 incubator in human smooth muscle basal medium-2 (SMBM; Lonza) containing 9% FBS and penicillin-streptomycin (Pen/Strep; 50 units/ml). After 24 hours, cells were growth arrested by incubating for 48 hours in fresh media containing no added serum. Media was then subsequently removed, replaced with human SMBM containing 9% serum with or without 0.1% DMSO in the absence and presence of the IP receptor agonist (either ralinepag, iloprost, treprostinil or MRE-269) and cells treated with the IP receptor agonist for 4 days over the concentration range ([…]). Responses were directly compared in cells containing the IP receptor antagonist, RO-1138452 (1 μM), which was added to cells 30-60 minutes prior to the addition of the IP agonist and remained throughout the experiment. Cells incubated with no added serum over the same time period (4 days) acted as the time control.
Cell proliferation was obtained using an MTS proliferation kit (Promega), a colorimetric method for determining the number of viable cells which is based on the cleavage of the tetrazolium salt MTS to formazan by cellular mitochondrial dehydrogenases. An increase in cell number leads to a proportional increase in the amount of formazan dye formed which is quantified by measuring the absorbance of the dye solution at 490 nm. In each case background absorbance was corrected by subtracting the average absorbance from the “no cell” control wells from all other absorbance values.
Cell proliferation was then normalized to the growth response induced by FBS alone, which was taken as the FBS response minus the time control (=100% growth at 4 days). Growth responses induced in presence of solvent±drugs is shown as % change in cell proliferation relative to the FBS response alone in all figures.
All data are presented as mean±standard error of mean (S.E.M) of at least 5 observations. Agonist log-concentration curves were constructed and fitted using the non-linear fitting routine in GraphPad Prism 4 or 6 (San Diego, Calif., USA). The concentration of agonist causing 50% of the maximal response (Emax) was expressed as the negative log (pEC50) and the mean EC50 calculated. P values <0.05 are considered statistically significant.

[3] = test system: human PASMCs from PAH patients; assay: as above; type: cell-based; conditions: for Emax: read-out: Emax (% Inhibition); for times more potent than ralinepag alone: individual fits (Table 1)
[4] = Homo sapiens, PASMC, 96 h, ralinepag alone or + 100 nM drug, from individual fits, 9% FBS + 0.1% DMSO, 4 days
[5] = in the presence of 100 nM riociguat

Question: What does the source list for `O=C(O)COC[C@H]1CC[C@H](COC(=O)N(c2ccccc2)c2ccc(Cl)cc2)CC1` [ralinepag, 2-(((1r,4r)-4-(((4-chlorophenyl)(phenyl)carbamoyloxy)methyl)cyclohexyl)methoxy)acetic acid]?
Answer: plasma half-life (Half-life in vivo): relatively long plasma half-life; EC50 ([1]; Homo sapiens, PASMC, preliminary experiments, read-out: EC50 for cAMP generation): ~100 nM; maximal effect compared with treprostinil ([1]; cyclic AMP assay): weaker maximal effects; fold more cyclic AMP than MRE-269 ([1]; ralinepag vs MRE-269): 2 fold; inhibition at 0.001 µM ([2]; Homo sapiens, PASMC, 1 nM ralinepag alone): 14%; inhibition at 0.01 µM ([2]; Homo sapiens, PASMC, 10 nM ralinepag in the presence of 100 nM bosentan): 21%; inhibition at 10 µM ([2]; Homo sapiens, PASMC, 10 μM ralinepag alone (highest dose tested)): 50%; inhibition at 0.1 µM ([2]; Homo sapiens, PASMC, 96 h, drug alone at 100 nM, compared to FBS and DMSO, 4 days): 28%; EC50 [2, 4]: 25 nM; EC50 ([2]; Homo sapiens, PASMC, ralinepag in the presence of 100 nM riociguat, individual fits): 10 nM; antiproliferative response in the presence of an IP receptor antagonist ([2]; IP receptor antagonist RO-1138452 (1 μM)): completely inhibited; maximal effect compared with treprostinil ([2]; cell proliferation assay): weaker maximal effects; fold lower dose of ralinepag inhibiting cell proliferation ([2]; combined with 100 nM macitentan vs ralinepag alone): 10 fold; IP receptor dependence of the effect ([2]; cyclic AMP and cell proliferation assays in human PASMCs from PAH patients): selective IP receptor agonists; dose of ralinepag at which significant inhibition of cell growth occurred [2, 5]: 10 pM; potency enhancement ([2]; in the presence of 100 nM sildenafil, mean fits (Table 2)): 8 fold; antiproliferative effect compared to ralinepag alone ([2]; in the presence of 100 nM treprostinil, entire concentration range, mean data): more effective in the presence of treprostinil; fold more antiproliferation effects than MRE-269 ([2]; ralinepag vs MRE-269): 10 fold; inhibition at 0.001 µM ([3]; Homo sapiens, PASMC, 1 nM ralinepag in the presence of 100 nM sildenafil): 27%; inhibition at 0.01 µM ([3]; Homo sapiens, PASMC, 10 nM ralinepag combined with 100 nM riociguat): 45%; inhibition at 10 µM ([3]; Homo sapiens, PASMC, 10 μM ralinepag in the presence of 100 nM sildenafil): 56%; inhibition at 10 µM ([3]; Homo sapiens, PASMC, 10 μM ralinepag in the presence of 100 nM treprostinil): 69%; EC50 ([3]; Homo sapiens, PASMC, 96 h, log EC50 printed with negative sign, ralinepag alone or + 100 nM drug, from individual fits, 9% FBS + 0.1% DMSO, 4 days, read-out: Log EC50 (n = 5) (converted)): 25.1 nM; EC50 ([3]; Homo sapiens, PASMC, 96 h, log EC50 printed with negative sign, ralinepag alone or + 100 nM drug, from mean fits, 9% FBS + 0.1% DMSO, 4 days, read-out: Log EC50 (n = 5) (converted)): 44.7 nM; Emax [3, 4]: 58.2 ± 4.1%; EC50 ([3]; Homo sapiens, PASMC, 96 h, ralinepag alone or + 100 nM drug, from mean fits, 9% FBS + 0.1% DMSO, 4 days, read-out: EC50): 44 nM; Emax ([3]; Homo sapiens, PASMC, 96 h, ralinepag alone or + 100 nM drug, from mean fits, 9% FBS + 0.1% DMSO, 4 days): 59.6 ± 17.3%; EC50 ([3]; Homo sapiens, PASMC, ralinepag in the presence of 100 nM sildenafil, individual fits, read-out: EC50): 5 nM; dose of ralinepag at which cell proliferation was inhibited ([3]; combined with 100 nM macitentan): 0.1 nM; dose of ralinepag at which significant inhibition of cell growth occurred ([3]; combined with 100 nM treprostinil): 0.1 nM; fold lower dose of ralinepag giving significant inhibition of cell growth ([3]; combined with 100 nM treprostinil vs ralinepag alone): 10 fold; antiproliferative effect compared to ralinepag alone ([3]; in the presence of 100 nM bosentan, mean data): not more effective; antiproliferative effect compared to ralinepag alone ([3]; in the presence of 100 nM macitentan, mean data): not significantly more effective; fold lower dose of ralinepag giving significant inhibition of cell growth ([3]; in the presence of 100 nM riociguat vs ralinepag alone): 100 fold; antiproliferative effect compared to ralinepag alone ([3]; in the presence of 100 nM riociguat, 0.01-10,000 nM ralinepag, mean data): significantly more effective at 10 nM and above; times more potent than ralinepag alone [3, 5]: ~2.5 times; potency enhancement ([3]; in the presence of 100 nM riociguat, mean fits (Table 2)): 8 fold; antiproliferative effect compared to ralinepag alone ([3]; in the presence of 100 nM sildenafil, 0.01-10,000 nM ralinepag): significantly (P<0.001, two-way ANOVA) more effective; times more potent than ralinepag alone ([3]; in the presence of 100 nM sildenafil): ~5 times; maximum response compared to ralinepag alone ([3]; in the presence of riociguat or treprostinil (100 nM)): significantly greater maximum response; concentration at which ralinepag started to significantly inhibit cell proliferation ([3]; ralinepag alone, not lowered by 100 nM bosentan): InM
